The record followed here is patent US12084472B2 (Ardelyx, Inc., priority 2015, dated 2024).

The structures appear in SMILES notation. Some results are limits rather than exact numbers.

The target of the test is T1, human TGR5 (Homo sapiens, UniProt Q8TDU6).
T1 construct: expressed in transfected cells; host or cells: HEK293
T1 sequence (Q8TDU6 1-330): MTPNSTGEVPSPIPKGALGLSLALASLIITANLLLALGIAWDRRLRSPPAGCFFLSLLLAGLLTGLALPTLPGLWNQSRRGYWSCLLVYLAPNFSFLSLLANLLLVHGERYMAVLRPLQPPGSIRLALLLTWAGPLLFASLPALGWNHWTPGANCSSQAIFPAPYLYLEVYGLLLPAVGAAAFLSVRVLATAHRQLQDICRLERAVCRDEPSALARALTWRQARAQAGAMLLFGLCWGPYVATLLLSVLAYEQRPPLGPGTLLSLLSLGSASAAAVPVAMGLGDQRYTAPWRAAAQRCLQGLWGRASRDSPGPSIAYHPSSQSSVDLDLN
Put plainly: Cell-based TGR5 assay (cAMP generation, HTRF). To be noted: HEK293 cells stably transfected with human TGR5; cAMP by HTRF; 30 minutes at 37° C.; read-out: pEC50 Human TGR5 (converted). In outline:
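Read-out was HTRF detection of cAMP, converted to concentration via a standard curve and fitted (3-parameter logistic) for pEC50 and maximal response. Agonist stimulation used HEK293 cells stably transfected with human TGR5, incubated 30 min at 37° C in IBMX-containing buffer at 0.05 nM to 10 μM compound.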
In general terms: TR-FRET usually uses a lanthanide donor and a delayed reading to cut background.
Take `O=C(CCCSc1ccc(Cl)c(COC2(c3cnccc3-c3ccccc3OC3CC3)CC2)c1)N(CCO)C[C@H](O)[C@@H](O)[C@H](O)[C@H](O)CO` [Compound I-660, 4-{[4-chloro-3-({1-[4-(2-cyclopropoxyphenyl)pyridin-3-yl]cyclopropoxy}methyl)phenyl]sulfanyl}-N-(2-hydroxyethyl)-N-[(2S,3R,4R,5R)-2,3,4,5,6-pentahydroxyhexyl]butanamide]: the EC50 is 126 to 1000 nM.

On to `O=C(CCCSc1ccc(Cl)c(COC2(c3cnccc3-c3ccccc3OC3CC3)CC2)c1)N(CCCO)C[C@H](O)[C@@H](O)[C@H](O)[C@H](O)CO` [Compound I-661, 4-{[4-chloro-3-({1-[4-(2-cyclopropoxyphenyl)pyridin-3-yl]cyclopropoxy}methyl)phenyl]sulfanyl}-N-(3-hydroxypropyl)-N-[(2S,3R,4R,5R)-2,3,4,5,6-pentahydroxyhexyl]butanamide], for which the EC50 is < 100 nM. Then `CN(C)CCN(C[C@H](O)[C@@H](O)[C@H](O)[C@H](O)CO)C(=O)CCCSc1ccc(Cl)c(COC2(c3cnccc3-c3ccccc3OC3CC3)CC2)c1` [Compound I-662, 4-{[4-chloro-3-({1-[4-(2-cyclopropoxyphenyl)pyridin-3-yl]cyclopropoxy}methyl)phenyl]sulfanyl}-N-[2-(dimethylamino)ethyl]-N-[(2S,3R,4R,5R)-2,3,4,5,6-pentahydroxyhexyl]butanamide], with 126 to 1000 nM; and `NC(=O)CN(C[C@H](O)[C@@H](O)[C@H](O)[C@H](O)CO)C(=O)CCCSc1ccc(Cl)c(COC2(c3cnccc3-c3ccccc3OC3CC3)CC2)c1` [Compound I-663, N-(carbamoylmethyl)-4-{[4-chloro-3-({1-[4-(2-cyclopropoxyphenyl)pyridin-3-yl]cyclopropoxy}methyl)phenyl]sulfanyl}-N-[(2S,3R,4R,5R)-2,3,4,5,6-pentahydroxyhexyl]butanamide], with 126 to 1000 nM. On to `COCCN(C[C@H](O)[C@@H](O)[C@H](O)[C@H](O)CO)C(=O)CCCSc1ccc(Cl)c(COC2(c3cnccc3-c3ccccc3OC3CC3)CC2)c1` [Compound I-664, 4-{[4-chloro-3-({1-[4-(2-cyclopropoxyphenyl)pyridin-3-yl]cyclopropoxy}methyl)phenyl]sulfanyl}-N-(2-methoxyethyl)-N-[(2S,3R,4R,5R)-2,3,4,5,6-pentahydroxyhexyl]butanamide], for which the EC50 is < 100 nM. For `CS(=O)(=O)CCN(C[C@H](O)[C@@H](O)[C@H](O)[C@H](O)CO)C(=O)CCCSc1ccc(Cl)c(COC2(c3cnccc3-c3ccccc3OC3CC3)CC2)c1` [Compound I-665, 4-{[4-chloro-3-({1-[4-(2-cyclopropoxyphenyl)pyridin-3-yl]cyclopropoxy}methyl)phenyl]sulfanyl}-N-(2-methanesulfonylethyl)-N-[(2S,3R,4R,5R)-2,3,4,5,6-pentahydroxyhexyl]butanamide] the value was 126 to 1000 nM; for `CCCN(C[C@H](O)[C@@H](O)[C@H](O)[C@H](O)CO)C(=O)CCCSc1ccc(Cl)c(COC2(c3cnccc3-c3ccccc3OC3CC3)CC2)c1` [Compound I-666, 4-{[4-chloro-3-({1-[4-(2-cyclopropoxyphenyl)pyridin-3-yl]cyclopropoxy}methyl)phenyl]sulfanyl}-N-[(2S,3R,4R,5R)-2,3,4,5,6-pentahydroxyhexyl]-N-propylbutanamide], < 100 nM; for `O=C(CCCSc1ccc(Cl)c(COC2(c3cnccc3-c3ccccc3OC3CC3)CC2)c1)N(Cc1ccccc1)C[C@H](O)[C@@H](O)[C@H](O)[C@H](O)CO` [Compound I-667, N-benzyl-4-{[4-chloro-3-({1-[4-(2-cyclopropoxyphenyl)pyridin-3-yl]cyclopropoxy}methyl)phenyl]sulfanyl}-N-[(2S,3R,4R,5R)-2,3,4,5,6-pentahydroxyhexyl]butanamide], 126 to 1000 nM. For `CC(C)N(C[C@H](O)[C@@H](O)[C@H](O)[C@H](O)CO)C(=O)CCCSc1ccc(Cl)c(COC2(c3cnccc3-c3ccccc3OC3CC3)CC2)c1` [Compound I-668, 4-{[4-chloro-3-({1-[4-(2-cyclopropoxyphenyl)pyridin-3-yl]cyclopropoxy}methyl)phenyl]sulfanyl}-N-[(2S,3R,4R,5R)-2,3,4,5,6-pentahydroxyhexyl]-N-(propan-2-yl)butanamide] the value was < 100 nM; for `O=C(CCCSc1ccc(Cl)c(COC2(c3cnccc3-c3ccccc3OC3CC3)CC2)c1)N(C[C@H](O)[C@@H](O)[C@H](O)[C@H](O)CO)C1CCOCC1` [Compound I-669, 4-{[4-chloro-3-({1-[4-(2-cyclopropoxyphenyl)pyridin-3-yl]cyclopropoxy}methyl)phenyl]sulfanyl}-N-(oxan-4-yl)-N-[(2S,3R,4R,5R)-2,3,4,5,6-pentahydroxyhexyl]butanamide], 126 to 1000 nM; for `CNC(=O)CN(C[C@H](O)[C@@H](O)[C@H](O)[C@H](O)CO)C(=O)CCCSc1ccc(Cl)c(COC2(c3cnccc3-c3ccccc3OC3CC3)CC2)c1` [Compound I-670, 4-{[4-chloro-3-({1-[4-(2-cyclopropoxyphenyl)pyridin-3-yl]cyclopropoxy}methyl)phenyl]sulfanyl}-N-[(methylcarbamoyl)methyl]-N-[(2S,3R,4R,5R)-2,3,4,5,6-pentahydroxyhexyl]butanamide], 126 to 1000 nM.

Take `CN(C)C(=O)CCN(C[C@H](O)[C@@H](O)[C@H](O)[C@H](O)CO)C(=O)CCCSc1ccc(Cl)c(COC2(c3cnccc3-c3ccccc3OC3CC3)CC2)c1` [Compound I-671, 4-{[4-chloro-3-({1-[4-(2-cyclopropoxyphenyl)pyridin-3-yl]cyclopropoxy}methyl)phenyl]sulfanyl}-N-[2-(dimethylcarbamoyl)ethyl]-N-[(2S,3R,4R,5R)-2,3,4,5,6-pentahydroxyhexyl]butanamide]: the EC50 was 126 to 1000 nM. Then `CCNC(=O)CCN(C[C@H](O)[C@@H](O)[C@H](O)[C@H](O)CO)C(=O)CCCSc1ccc(Cl)c(COC2(c3cnccc3-c3ccccc3OC3CC3)CC2)c1` [Compound I-672, 4-{[4-chloro-3-({1-[4-(2-cyclopropoxyphenyl)pyridin-3-yl]cyclopropoxy}methyl)phenyl]sulfanyl}-N-[2-(ethylcarbamoyl)ethyl]-N-[(2S,3R,4R,5R)-2,3,4,5,6-pentahydroxyhexyl]butanamide], with 126 to 1000 nM; and `COCCCN(C[C@H](O)[C@@H](O)[C@H](O)[C@H](O)CO)C(=O)CCCSc1ccc(Cl)c(COC2(c3cnccc3-c3ccccc3OC3CC3)CC2)c1` [Compound I-673, 4-{[4-chloro-3-({1-[4-(2-cyclopropoxyphenyl)pyridin-3-yl]cyclopropoxy}methyl)phenyl]sulfanyl}-N-(3-methoxypropyl)-N-[(2S,3R,4R,5R)-2,3,4,5,6-pentahydroxyhexyl]butanamide], with 126 to 1000 nM; and `CN(C)C(=O)CN(C[C@H](O)[C@@H](O)[C@H](O)[C@H](O)CO)C(=O)CCCSc1ccc(Cl)c(COC2(c3cnccc3-c3ccccc3OC3CC3)CC2)c1` [Compound I-674, 4-{[4-chloro-3-({1-[4-(2-cyclopropoxyphenyl)pyridin-3-yl]cyclopropoxy}methyl)phenyl]sulfanyl}-N-[(dimethylcarbamoyl)methyl]-N-[(2S,3R,4R,5R)-2,3,4,5,6-pentahydroxyhexyl]butanamide], with 126 to 1000 nM. Then `NC(=O)CCN(C[C@H](O)[C@@H](O)[C@H](O)[C@H](O)CO)C(=O)CCCSc1ccc(Cl)c(COC2(c3cnccc3-c3ccccc3OC3CC3)CC2)c1` [Compound I-675, N-(2-carbamoylethyl)-4-{[4-chloro-3-({1-[4-(2-cyclopropoxyphenyl)pyridin-3-yl]cyclopropoxy}methyl)phenyl]sulfanyl}-N-[(2S,3R,4R,5R)-2,3,4,5,6-pentahydroxyhexyl]butanamide], with 1260 to 10000 nM; and `CN(C[C@H](O)[C@@H](O)[C@H](O)[C@H](O)CO)C(=O)CCSc1ccc(Cl)c(CNC2(c3cnccc3-c3ccccc3OC3CC3)CC2)c1` [Compound I-676, 3-({4-chloro-3-[({1-[4-(2-cyclopropoxyphenyl)pyridin-3-yl]cyclopropyl}amino)methyl]phenyl}sulfanyl)-N-methyl-N-[(2S,3R,4R,5R)-2,3,4,5,6-pentahydroxyhexyl]propanamide], with < 100 nM; and `CN(C[C@H](O)[C@@H](O)[C@H](O)[C@H](O)CO)C(=O)CCSc1ccc(Cl)c(COC2(c3cnccc3-c3ccccc3OC3CC3)CC2)c1` [Compound I-677, 3-{[4-chloro-3-({1-[4-(2-cyclopropoxyphenyl)pyridin-3-yl]cyclopropoxy}methyl)phenyl]sulfanyl}-N-methyl-N-[(2S,3R,4R,5R)-2,3,4,5,6-pentahydroxyhexyl]propanamide], with < 100 nM. For `CN(C[C@H](O)[C@@H](O)[C@H](O)[C@H](O)CO)C(=O)CCCCSc1ccc(Cl)c(CNC2(c3cnccc3-c3ccccc3OC3CC3)CC2)c1` [Compound I-678, 5-({4-chloro-3-[({1-[4-(2-cyclopropoxyphenyl)pyridin-3-yl]cyclopropyl}amino)methyl]phenyl}sulfanyl)-N-methyl-N-[(2S,3R,4R,5R)-2,3,4,5,6-pentahydroxyhexyl]pentanamide] the value was < 100 nM.

As to `CN(C[C@H](O)[C@@H](O)[C@H](O)[C@H](O)CO)C(=O)CC1(CSc2ccc(Cl)c(COC3(c4cnccc4-c4ccccc4OC4CC4)CC3)c2)CC1` [Compound I-679, 2-[1-({[4-chloro-3-({1-[4-(2-cyclopropoxyphenyl)pyridin-3-yl]cyclopropoxy}methyl)phenyl]sulfanyl}methyl)cyclopropyl]-N-methyl-N-[(2S,3R,4R,5R)-2,3,4,5,6-pentahydroxyhexyl]acetamide], the EC50 was < 100 nM.
